Molecules are shown by their SMILES.

One assay has as its system NCI-H520. The experiment in a line: relative viability (nuclei count vs DMSO), 5 days (fraction); higher = more cells survive. Particulars: first compound 6.325 µM. The essentials:
(§1)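 Nuclei were stained with Hoechst during a one-step fixation (final 0.05% Triton X-100, 1% formaldehyde, 1 ug/ml Hoechst) carried out 5 days after dosing, then counted on 4× images. The cells, lung cancer lines in 1536-well plates, had been dosed by pin tool the day after seeding with one drug alone or a fixed anchor-drug dose plus five library-drug doses (not always all listed) in √10 steps. Relative viability is the nuclei count in treated wells divided by that in vehicle wells, and each value is the median of duplicate plates.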
The molecule `COCC1(CO)C(=O)C2CCN1CC2` (configuration not stated) [PRIMA-1MET] + C[C@]1(O)C[C@@H](c2nc(-c3ccc4ccc(-c5ccccc5)nc4c3)c3c(N)nccn32)C1 [Linsitinib] (partner 1 µM) came in with a relative viability of 0.869.

In turn, `COCC1(CO)C(=O)C2CCN1CC2` (configuration not stated) [PRIMA-1MET] + COc1cc2c(Oc3ccc(NC(=O)C4(C(=O)Nc5ccc(F)cc5)CC4)cc3F)ccnc2cc1OCCCN1CCOCC1 [Foretinib] (partner 0.25 µM) gave a relative viability of 0.715.

Molecule `COCC1(CO)C(=O)C2CCN1CC2` (configuration not stated) [PRIMA-1MET] + Cc1nc(NC(=O)N2CCC[C@H]2C(N)=O)sc1-c1ccnc(C(C)(C)C(F)(F)F)c1 [Alpelisib] (partner 2 µM) came in with a relative viability of 0.831.

Still in this assay, the particulars now being: first compound 20 µM.
On to `COCC1(CO)C(=O)C2CCN1CC2` (configuration not stated) [PRIMA-1MET] + CS(=O)(=O)N1CCN(Cc2cc3nc(-c4cccc5[nH]ncc45)nc(N4CCOCC4)c3s2)CC1 [Pictilisib] (partner 1 µM), for which the relative viability is 0.13.

Molecule `COCC1(CO)C(=O)C2CCN1CC2` (configuration not stated) [PRIMA-1MET] + CS(=O)(=O)CCNCc1ccc(-c2ccc3ncnc(Nc4ccc(OCc5cccc(F)c5)c(Cl)c4)c3c2)o1 [Lapatinib] (partner 2 µM) returned a relative viability of 0.0834.

Turning to `COCC1(CO)C(=O)C2CCN1CC2` (configuration not stated) [PRIMA-1MET] + C[C@]1(O)C[C@@H](c2nc(-c3ccc4ccc(-c5ccccc5)nc4c3)c3c(N)nccn32)C1 [Linsitinib] (partner 1 µM), the relative viability came out at 0.0887.

With `COCC1(CO)C(=O)C2CCN1CC2` (configuration not stated) [PRIMA-1MET] + COc1cc2c(Oc3ccc(NC(=O)C4(C(=O)Nc5ccc(F)cc5)CC4)cc3F)ccnc2cc1OCCCN1CCOCC1 [Foretinib] (partner 0.25 µM), the relative viability came out at 0.0989.

For the molecule `COCC1(CO)C(=O)C2CCN1CC2` (configuration not stated) [PRIMA-1MET] + Cc1nc(NC(=O)N2CCC[C@H]2C(N)=O)sc1-c1ccnc(C(C)(C)C(F)(F)F)c1 [Alpelisib] (partner 2 µM), the relative viability was determined as 0.0746.

The next assay concerns NCI-H647. Described as above. Particulars: first compound 0.2 µM. The essentials: as §1
In the case of `COCC1(CO)C(=O)C2CCN1CC2` (configuration not stated) [PRIMA-1MET] + CS(=O)(=O)N1CCN(Cc2cc3nc(-c4cccc5[nH]ncc45)nc(N4CCOCC4)c3s2)CC1 [Pictilisib] (partner 1 µM), the relative viability is 0.523.

`COCC1(CO)C(=O)C2CCN1CC2` (configuration not stated) [PRIMA-1MET] + CS(=O)(=O)CCNCc1ccc(-c2ccc3ncnc(Nc4ccc(OCc5cccc(F)c5)c(Cl)c4)c3c2)o1 [Lapatinib] (partner 2 µM) registered a relative viability of 1.29.

Molecule `COCC1(CO)C(=O)C2CCN1CC2` (configuration not stated) [PRIMA-1MET] + C[C@]1(O)C[C@@H](c2nc(-c3ccc4ccc(-c5ccccc5)nc4c3)c3c(N)nccn32)C1 [Linsitinib] (partner 1 µM) yielded a relative viability of 1.42.

Molecule `COCC1(CO)C(=O)C2CCN1CC2` (configuration not stated) [PRIMA-1MET] + COc1cc2c(Oc3ccc(NC(=O)C4(C(=O)Nc5ccc(F)cc5)CC4)cc3F)ccnc2cc1OCCCN1CCOCC1 [Foretinib] (partner 0.25 µM) came in with a relative viability of 1.29.

`COCC1(CO)C(=O)C2CCN1CC2` (configuration not stated) [PRIMA-1MET] + Cc1nc(NC(=O)N2CCC[C@H]2C(N)=O)sc1-c1ccnc(C(C)(C)C(F)(F)F)c1 [Alpelisib] (partner 2 µM) yielded a relative viability of 1.33.

Still in this assay, the particulars now being: first compound 0.6325 µM.
`COCC1(CO)C(=O)C2CCN1CC2` (configuration not stated) [PRIMA-1MET] + CS(=O)(=O)N1CCN(Cc2cc3nc(-c4cccc5[nH]ncc45)nc(N4CCOCC4)c3s2)CC1 [Pictilisib] (partner 1 µM): the relative viability was 0.384.

As to `COCC1(CO)C(=O)C2CCN1CC2` (configuration not stated) [PRIMA-1MET] + CS(=O)(=O)CCNCc1ccc(-c2ccc3ncnc(Nc4ccc(OCc5cccc(F)c5)c(Cl)c4)c3c2)o1 [Lapatinib] (partner 2 µM), the relative viability was 1.09.

Regarding `COCC1(CO)C(=O)C2CCN1CC2` (configuration not stated) [PRIMA-1MET] + C[C@]1(O)C[C@@H](c2nc(-c3ccc4ccc(-c5ccccc5)nc4c3)c3c(N)nccn32)C1 [Linsitinib] (partner 1 µM), the relative viability is 1.16.

Take `COCC1(CO)C(=O)C2CCN1CC2` (configuration not stated) [PRIMA-1MET] + COc1cc2c(Oc3ccc(NC(=O)C4(C(=O)Nc5ccc(F)cc5)CC4)cc3F)ccnc2cc1OCCCN1CCOCC1 [Foretinib] (partner 0.25 µM): the relative viability is 0.973.

With `COCC1(CO)C(=O)C2CCN1CC2` (configuration not stated) [PRIMA-1MET] + Cc1nc(NC(=O)N2CCC[C@H]2C(N)=O)sc1-c1ccnc(C(C)(C)C(F)(F)F)c1 [Alpelisib] (partner 2 µM), the relative viability turned out to be 1.04.

The assay is the same for the next values; noted with them: first compound 2 µM.
The molecule `COCC1(CO)C(=O)C2CCN1CC2` (configuration not stated) [PRIMA-1MET] + CS(=O)(=O)CCNCc1ccc(-c2ccc3ncnc(Nc4ccc(OCc5cccc(F)c5)c(Cl)c4)c3c2)o1 [Lapatinib] (partner 2 µM) had a relative viability of 0.759.

In the case of `COCC1(CO)C(=O)C2CCN1CC2` (configuration not stated) [PRIMA-1MET] + C[C@]1(O)C[C@@H](c2nc(-c3ccc4ccc(-c5ccccc5)nc4c3)c3c(N)nccn32)C1 [Linsitinib] (partner 1 µM), the relative viability is 1.18.

As for `COCC1(CO)C(=O)C2CCN1CC2` (configuration not stated) [PRIMA-1MET] + COc1cc2c(Oc3ccc(NC(=O)C4(C(=O)Nc5ccc(F)cc5)CC4)cc3F)ccnc2cc1OCCCN1CCOCC1 [Foretinib] (partner 0.25 µM), the relative viability is 1.08.

The molecule `COCC1(CO)C(=O)C2CCN1CC2` (configuration not stated) [PRIMA-1MET] + Cc1nc(NC(=O)N2CCC[C@H]2C(N)=O)sc1-c1ccnc(C(C)(C)C(F)(F)F)c1 [Alpelisib] (partner 2 µM) yielded a relative viability of 1.13.

Staying with this assay, now noted: first compound 6.325 µM.
Molecule `COCC1(CO)C(=O)C2CCN1CC2` (configuration not stated) [PRIMA-1MET] + CS(=O)(=O)N1CCN(Cc2cc3nc(-c4cccc5[nH]ncc45)nc(N4CCOCC4)c3s2)CC1 [Pictilisib] (partner 1 µM) displayed a relative viability of 0.412.

Molecule `COCC1(CO)C(=O)C2CCN1CC2` (configuration not stated) [PRIMA-1MET] + CS(=O)(=O)CCNCc1ccc(-c2ccc3ncnc(Nc4ccc(OCc5cccc(F)c5)c(Cl)c4)c3c2)o1 [Lapatinib] (partner 2 µM) displayed a relative viability of 1.29.

`COCC1(CO)C(=O)C2CCN1CC2` (configuration not stated) [PRIMA-1MET] + C[C@]1(O)C[C@@H](c2nc(-c3ccc4ccc(-c5ccccc5)nc4c3)c3c(N)nccn32)C1 [Linsitinib] (partner 1 µM) displayed a relative viability of 1.42.

Take `COCC1(CO)C(=O)C2CCN1CC2` (configuration not stated) [PRIMA-1MET] + COc1cc2c(Oc3ccc(NC(=O)C4(C(=O)Nc5ccc(F)cc5)CC4)cc3F)ccnc2cc1OCCCN1CCOCC1 [Foretinib] (partner 0.25 µM): the relative viability amounted to 1.22.

As to `COCC1(CO)C(=O)C2CCN1CC2` (configuration not stated) [PRIMA-1MET] + Cc1nc(NC(=O)N2CCC[C@H]2C(N)=O)sc1-c1ccnc(C(C)(C)C(F)(F)F)c1 [Alpelisib] (partner 2 µM), the relative viability turned out to be 1.09.

The assay is the same for the next values; noted with them: first compound 20 µM.
For `COCC1(CO)C(=O)C2CCN1CC2` (configuration not stated) [PRIMA-1MET] + CS(=O)(=O)N1CCN(Cc2cc3nc(-c4cccc5[nH]ncc45)nc(N4CCOCC4)c3s2)CC1 [Pictilisib] (partner 1 µM), the relative viability is 0.165.

On to `COCC1(CO)C(=O)C2CCN1CC2` (configuration not stated) [PRIMA-1MET] + CS(=O)(=O)CCNCc1ccc(-c2ccc3ncnc(Nc4ccc(OCc5cccc(F)c5)c(Cl)c4)c3c2)o1 [Lapatinib] (partner 2 µM), for which the relative viability stood at 0.783.

As for `COCC1(CO)C(=O)C2CCN1CC2` (configuration not stated) [PRIMA-1MET] + C[C@]1(O)C[C@@H](c2nc(-c3ccc4ccc(-c5ccccc5)nc4c3)c3c(N)nccn32)C1 [Linsitinib] (partner 1 µM), the relative viability stood at 1.18.

Molecule `COCC1(CO)C(=O)C2CCN1CC2` (configuration not stated) [PRIMA-1MET] + COc1cc2c(Oc3ccc(NC(=O)C4(C(=O)Nc5ccc(F)cc5)CC4)cc3F)ccnc2cc1OCCCN1CCOCC1 [Foretinib] (partner 0.25 µM) came in with a relative viability of 1.16.

For `COCC1(CO)C(=O)C2CCN1CC2` (configuration not stated) [PRIMA-1MET] + Cc1nc(NC(=O)N2CCC[C@H]2C(N)=O)sc1-c1ccnc(C(C)(C)C(F)(F)F)c1 [Alpelisib] (partner 2 µM), the relative viability is 0.892.
